Consider 17 molecules from ChEMBL document CHEMBL2151026, “Comparative study on antioxidant capacity of flavonoids and their inhibitory effects on oleic acid-induced hepatic steatosis in vitro” (Eur J Med Chem, 2011).

Activity calls are given as the source filed them. No cut-off for these calls is given here.

Usually IC30 stands for the concentration needed for an effect of 30%.

Data set [1] can be described thus: Reducing activity assessed as chlorogenic acid equivalent per mmol standard at 37 degC for 30 mins by Folin-Ciocalteu reagent assay.
The nature of data set [2]: Reducing activity by cyclic voltammetry.
Data set [3] relates to HepG2. The experiment in a line: Cytotoxicity against human HepG2 cells incubated for 24 hrs by MTT assay. Particulars: hepg2, 24 h. Type of data set: cell-based. A general note: Tetrazolium dyes change colour on reduction, which living cells bring about.
Data set [4] has as its system HepG2. Put plainly: Antioxidant activity in human HepG2 cells assessed as reduction of oleic acid-induced ROS generation incubated for 24 hrs by DHCF-DA based fluorimetric assay relative to untreated control. Particulars: for IC30: Homo sapiens, HepG2, 24 h. Type of data set: functional.
The subject of data set [5] is HepG2. The experiment in a line: Inhibition of oleic acid-induced triglyceride over-accumulation in human HepG2 cells incubated for 24 hrs relative to untreated control. Format: functional. Particulars: for IC30: Homo sapiens, HepG2, 24 h.
Data set [6] relates to HepG2. Put plainly: Proxidant activity in human HepG2 cells assessed as increase in oleic acid-induced ROS generation at >10 uM incubated for 24 hrs by […] based fluorimetric assay relative to untreated control. Format: cell-based. Particulars: hepg2, 24 h.
For data set [7], the system named is HepG2. Put plainly: Proxidant activity in human HepG2 cells assessed as increase in oleic acid-induced ROS generation at >25 uM incubated for 24 hrs by […] based fluorimetric assay relative to untreated control. Format: cell-based. Particulars: hepg2, 24 h.

As to `O=C1c2c(O)cc(O)cc2O[C@H](c2ccc(O)c(O)c2)[C@H]1O` [(+)-TAXIFOLIN], the Activity was 0.99 mM in data set [1], 0.248 V in data set [2] and above 200 µM in the data set with HepG2 [3]. For the same molecule, the Imax with HepG2 [4] is on record as 40.1%; with HepG2 [5], 43.4%. The 30% effect concentration (IC30) with HepG2 [4] was determined as 40 µM; with HepG2 [5], 63.6 µM.
On to `Oc1cc(O)c2c(c1)O[C@H](c1ccc(O)c(O)c1)[C@H](O)C2` [(-)-EPICATECHIN], for which the values for the Activity (in data set [1]; with HepG2 [3]) were 1.05 mM and above 250 µM, respectively. For the same molecule, the Imax with HepG2 [4] came to 38.1%; in the data set with HepG2 [5] it was 46.6%. The IC30 with HepG2 [4] was found to be 103 µM; in the data set with HepG2 [5], 166 µM.
Take `O=c1cc(-c2ccc(O)cc2)oc2cc(O)cc(O)c12` [APIGENIN]: the Activity result in the data set with HepG2 [6] is “Toxic”; in data set [1] it was 0.39 mM; in the data set on HepG2 [7] it was “Toxic”; in data set [2] it was 0.623 V; in the data set with HepG2 [3] it was above 150 µM. Further, the Imax entry with HepG2 [4] and in the data set with HepG2 [5] was “inactive” in each case.
In the case of `O=c1cc(-c2ccccc2)oc2cc(O)cc(O)c12` [CHRYSIN], the Activity in data set [1] was 0.16 mM; in data set [2], 0.81 V; in the data set with HepG2 [3] it was above 20 µM. The Imax entry in the data set on HepG2 [4] and with HepG2 [5] was “inactive” in each case.
On to `Oc1cc(O)c2c(c1)O[C@H](c1ccc(O)c(O)c1)[C@@H](O)C2` [CIANIDANOL], for which the Activity in data set [1] is 0.77 mM; in data set [2], 0.285 V; in the data set on HepG2 [3], above 250 µM. Further, the Imax in the data set with HepG2 [4] was found to be 29.8%; in the data set on HepG2 [5], 28.7%. Besides, the IC30 in the data set with HepG2 [4] and in the data set with HepG2 [5] was above 250 µM throughout.
As to `O=c1c(-c2ccc(O)cc2)coc2cc(O)ccc12` [DAIDZEIN], the Activity was 0.4 mM in data set [1], 0.596 V in data set [2] and above 200 µM with HepG2 [3]. The Imax amounted to 37.5% in the data set on HepG2 [4] and 34.5% in the data set with HepG2 [5]. Further, the inhibition result in the data set on HepG2 [4] was “Dose-dependent effect”. For the same molecule, the IC30 in the data set on HepG2 [4] turned out to be 135 µM; in the data set with HepG2 [5], 140 µM.
In the case of `O=C(O[C@@H]1Cc2c(O)cc(O)cc2O[C@@H]1c1cc(O)c(O)c(O)c1)c1cc(O)c(O)c(O)c1` [EPIGALOCATECHIN GALLATE], the Activity in data set [1] was 2.2 mM; in data set [2], 0.125 V; with HepG2 [3] it was above 200 µM. Also, the Imax with HepG2 [4] is recorded as 40.2%; in the data set with HepG2 [5], 54.2%. In addition, in the data set on HepG2 [4], the inhibition entry was “Dose-dependent effect”. Also, the results for the concentration for an effect of 30% (IC30) in the data set on HepG2 [4] and in the data set on HepG2 [5] were 26.2 µM and 6.3 µM, respectively.
On to `O=c1c(O)c(-c2ccccc2)oc2cc(O)cc(O)c12` [GALANGIN], for which the results for the Activity (in data set [1]; in data set [2]; in the data set with HepG2 [3]) were 0.75 mM, 0.354 V and above 50 µM, respectively. Besides, the Imax in the data set on HepG2 [4] is 12.4%. In addition, the concentration for an effect of 30% (IC30) in the data set with HepG2 [4] is above 50 µM. For the same molecule, the Imax entry in the data set on HepG2 [5] was “inactive”.
Consider `O=c1c(-c2ccc(O)cc2)coc2cc(O)cc(O)c12` [GENISTEIN], for which the Activity was 0.33 mM in data set [1], 0.614 V in data set [2] and above 50 µM in the data set on HepG2 [3]. Besides, in the data set on HepG2 [4], the Imax was 17.3%. In addition, in the data set on HepG2 [4], the IC30 was above 50 µM. For the same molecule, in the data set on HepG2 [5], the Imax result is “inactive”.
Consider `COc1ccc([C@@H]2CC(=O)c3c(O)cc(O)cc3O2)cc1O` [HESPERETIN], for which the results for the Activity (in data set [1]; in data set [2]; with HepG2 [3]) were 0.53 mM, 0.556 V and above 100 µM, respectively. For the same molecule, in the data set on HepG2 [4], the Imax is 23%. The IC30 in the data set with HepG2 [4] is above 150 µM. Moreover, the Imax entry in the data set with HepG2 [5] was “inactive”.
Take `COc1cc(-c2oc3cc(O)cc(O)c3c(=O)c2O)ccc1O` [ISORHAMNETIN]: the Activity in data set [1] is 1.04 mM; in data set [2], 0.115 V; in the data set on HepG2 [3] it was above 200 µM. In addition, the Imax with HepG2 [4] is on record as 43.8%; in the data set on HepG2 [5], 41.8%. Further, the inhibition result in the data set on HepG2 [4] is “Dose-dependent effect”. Further, the IC30 in the data set on HepG2 [4] amounted to 69.3 µM; with HepG2 [5], 90.5 µM.
Consider `O=c1c(O)c(-c2ccc(O)cc2)oc2cc(O)cc(O)c12` [KAEMPFEROL], for which the Activity is 1.08 mM in data set [1], 0.189 V in data set [2] and above 200 µM in the data set on HepG2 [3]. Besides, the Imax stood at 42.2% with HepG2 [4] and 58.6% in the data set on HepG2 [5]. Also, in the data set on HepG2 [4], the inhibition result was “Dose-dependent effect”. Besides, the IC30 in the data set with HepG2 [4] came out at 68.7 µM; in the data set on HepG2 [5] it was 121 µM.
As for `O=c1cc(-c2ccc(O)c(O)c2)oc2cc(O)cc(O)c12` [LUTEOLIN], the Activity in data set [1] is 0.91 mM; in data set [2] it was 0.269 V; in the data set with HepG2 [3] it was above 20 µM. Moreover, the results for the Imax in the data set with HepG2 [4] and with HepG2 [5] were 24% and 24.2%, respectively. Also, the concentration for an effect of 30% (IC30) in the data set on HepG2 [4] and in the data set on HepG2 [5] was above 20 µM throughout.
Turning to `O=c1c(O)c(-c2cc(O)c(O)c(O)c2)oc2cc(O)cc(O)c12` [MYRICETIN], the Activity was 1.02 mM in data set [1], 0.115 V in data set [2] and above 200 µM with HepG2 [3]. For the same molecule, the Imax stood at 34.5% in the data set with HepG2 [4] and 24.8% in the data set with HepG2 [5]. Further, in the data set on HepG2 [4], the inhibition entry was “Dose-dependent effect”. Moreover, the values for the IC30 in the data set with HepG2 [4] and with HepG2 [5] were 123 µM and above 150 µM, respectively.
With `O=C1C[C@@H](c2ccc(O)cc2)Oc2cc(O)cc(O)c21` [NARINGENIN], the Activity is 0.55 mM in data set [1], 0.71 V in data set [2] and above 200 µM in the data set on HepG2 [3]. The Imax result with HepG2 [4] and with HepG2 [5] was “inactive” throughout.
For `O=c1c(O)c(-c2ccc(O)c(O)c2)oc2cc(O)cc(O)c12` [QUERCETIN], the Activity was 1.24 mM in data set [1], 0.218 V in data set [2] and above 75 µM in the data set with HepG2 [3]. In addition, the results for the Imax in the data set on HepG2 [4] and in the data set with HepG2 [5] were 43.6% and 46.1%, respectively. For the same molecule, the inhibition result in the data set with HepG2 [4] is “Dose-dependent effect”. The 30% effect concentration (IC30) was determined as 30.8 µM in the data set with HepG2 [4] and 14.9 µM in the data set with HepG2 [5].
Turning to `C[C@@H]1O[C@@H](OC[C@H]2O[C@@H](Oc3c(-c4ccc(O)c(O)c4)oc4cc(O)cc(O)c4c3=O)[C@H](O)[C@@H](O)[C@@H]2O)[C@H](O)[C@H](O)[C@H]1O` [RUTIN], the Activity in data set [1] is 1.35 mM; in data set [2] it was 0.306 V; in the data set on HepG2 [3], above 250 µM. Besides, the Imax came to 25.2% in the data set with HepG2 [4] and 28.2% in the data set with HepG2 [5]. For the same molecule, the inhibition entry in the data set with HepG2 [4] is “Dose-dependent effect”. Further, the 30% effect concentration (IC30) in the data set with HepG2 [4] is above 250 µM; in the data set with HepG2 [5], above 200 µM.
